In assay [1] the target is p110β WT (Homo sapiens, UniProt P42338). As to the kind of experiment: PI3K lipid kinase inhibition assay, wild-type p110β. It is filed as biochemical. The note with it: for selectivity for p110β relative to p110α (wild type): wild type enzymes.
In assay [2] the target is p110β (D862Q) (Homo sapiens, UniProt P42338, D862Q). As to the kind of experiment: PI3K lipid kinase inhibition assay, p110β D862Q mutant. It is filed as biochemical.
Assay [3] has as its target p110β (E858H) (Homo sapiens, UniProt P42338, E858H). Briefly: PI3K lipid kinase inhibition assay, p110β E858H mutant. It is filed as biochemical.
Assay [4] has as its target p110α WT (Homo sapiens, UniProt P42336). As to the kind of experiment: PI3K lipid kinase inhibition assay, wild-type p110α. It is filed as biochemical. Conditions: IC50 ratio p110α WT / p110β WT.
Assay [5] has as its target p110α (Q859D) (Homo sapiens, UniProt P42336, Q859D). Briefly: PI3K lipid kinase inhibition assay, p110α Q859D mutant. The note with it: for Selectivity ratio α/β Gln↔Asp: IC50 ratio p110α-(Q859D) / p110β-(D862Q). It is filed as biochemical.
Assay [6] addresses p110α (H855E) (Homo sapiens, UniProt P42336, H855E). Briefly: PI3K lipid kinase inhibition assay, p110α H855E mutant. It is filed as biochemical. Conditions: for Selectivity ratio α/β His↔Glu: IC50 ratio p110α-(H855E) / p110β-(E858H); for loss of potency at H857E-p110α relative to wild type: mutant printed as H857E.
The subject of assay [7] is p110β. Conditions: read-out: IC50 against p110β; 10μM ATP; ref Knight et al. 2006; cited from earlier work.

Chain of p110α (H855E) (P42336 whole entry H855E, species assumed): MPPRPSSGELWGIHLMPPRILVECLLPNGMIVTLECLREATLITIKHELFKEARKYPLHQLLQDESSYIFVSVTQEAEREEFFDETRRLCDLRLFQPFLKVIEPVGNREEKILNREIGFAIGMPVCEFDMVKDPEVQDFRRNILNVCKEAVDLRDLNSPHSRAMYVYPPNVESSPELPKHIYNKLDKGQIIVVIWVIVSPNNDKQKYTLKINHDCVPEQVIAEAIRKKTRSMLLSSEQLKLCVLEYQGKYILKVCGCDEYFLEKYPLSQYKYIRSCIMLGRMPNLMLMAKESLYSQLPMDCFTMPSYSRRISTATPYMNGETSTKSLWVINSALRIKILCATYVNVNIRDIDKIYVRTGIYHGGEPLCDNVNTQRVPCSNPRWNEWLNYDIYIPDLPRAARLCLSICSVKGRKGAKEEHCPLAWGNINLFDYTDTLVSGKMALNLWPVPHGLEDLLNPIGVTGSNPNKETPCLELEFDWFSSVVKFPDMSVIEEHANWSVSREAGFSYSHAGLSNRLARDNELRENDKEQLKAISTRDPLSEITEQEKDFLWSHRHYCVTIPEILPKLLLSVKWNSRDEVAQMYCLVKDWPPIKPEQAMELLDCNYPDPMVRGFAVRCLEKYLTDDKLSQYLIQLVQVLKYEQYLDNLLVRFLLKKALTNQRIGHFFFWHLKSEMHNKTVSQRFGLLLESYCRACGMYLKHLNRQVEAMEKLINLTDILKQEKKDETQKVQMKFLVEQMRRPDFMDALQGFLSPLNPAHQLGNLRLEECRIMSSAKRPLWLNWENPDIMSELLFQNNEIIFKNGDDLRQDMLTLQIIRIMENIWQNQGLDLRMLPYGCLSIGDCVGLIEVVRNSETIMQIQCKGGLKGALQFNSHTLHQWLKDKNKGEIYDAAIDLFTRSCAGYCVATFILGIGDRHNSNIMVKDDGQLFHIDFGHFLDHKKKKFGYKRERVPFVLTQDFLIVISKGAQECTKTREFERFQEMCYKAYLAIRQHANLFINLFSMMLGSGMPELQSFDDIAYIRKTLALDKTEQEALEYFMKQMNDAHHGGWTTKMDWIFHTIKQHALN
Chain of p110α (H855E) (P27986 whole entry partner, species assumed): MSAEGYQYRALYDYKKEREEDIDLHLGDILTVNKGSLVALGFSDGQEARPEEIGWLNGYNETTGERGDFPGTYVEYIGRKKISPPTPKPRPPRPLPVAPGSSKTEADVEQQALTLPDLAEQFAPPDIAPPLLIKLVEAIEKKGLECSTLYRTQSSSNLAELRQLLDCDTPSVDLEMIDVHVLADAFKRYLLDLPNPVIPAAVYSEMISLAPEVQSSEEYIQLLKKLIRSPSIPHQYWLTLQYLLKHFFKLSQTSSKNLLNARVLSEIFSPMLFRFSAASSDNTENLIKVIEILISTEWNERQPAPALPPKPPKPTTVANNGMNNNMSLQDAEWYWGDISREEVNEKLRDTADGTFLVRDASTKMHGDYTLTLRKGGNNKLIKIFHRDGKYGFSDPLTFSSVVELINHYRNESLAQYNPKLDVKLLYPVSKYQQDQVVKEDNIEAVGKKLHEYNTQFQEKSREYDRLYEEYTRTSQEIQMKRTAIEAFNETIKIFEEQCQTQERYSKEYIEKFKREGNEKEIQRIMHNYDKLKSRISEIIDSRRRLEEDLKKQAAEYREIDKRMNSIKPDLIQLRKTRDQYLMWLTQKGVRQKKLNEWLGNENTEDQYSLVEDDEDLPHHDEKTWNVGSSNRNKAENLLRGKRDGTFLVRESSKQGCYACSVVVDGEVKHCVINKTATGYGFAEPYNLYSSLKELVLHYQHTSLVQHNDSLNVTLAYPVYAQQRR
Chain of p110β (D862Q) (P42338 whole entry D862Q, species assumed): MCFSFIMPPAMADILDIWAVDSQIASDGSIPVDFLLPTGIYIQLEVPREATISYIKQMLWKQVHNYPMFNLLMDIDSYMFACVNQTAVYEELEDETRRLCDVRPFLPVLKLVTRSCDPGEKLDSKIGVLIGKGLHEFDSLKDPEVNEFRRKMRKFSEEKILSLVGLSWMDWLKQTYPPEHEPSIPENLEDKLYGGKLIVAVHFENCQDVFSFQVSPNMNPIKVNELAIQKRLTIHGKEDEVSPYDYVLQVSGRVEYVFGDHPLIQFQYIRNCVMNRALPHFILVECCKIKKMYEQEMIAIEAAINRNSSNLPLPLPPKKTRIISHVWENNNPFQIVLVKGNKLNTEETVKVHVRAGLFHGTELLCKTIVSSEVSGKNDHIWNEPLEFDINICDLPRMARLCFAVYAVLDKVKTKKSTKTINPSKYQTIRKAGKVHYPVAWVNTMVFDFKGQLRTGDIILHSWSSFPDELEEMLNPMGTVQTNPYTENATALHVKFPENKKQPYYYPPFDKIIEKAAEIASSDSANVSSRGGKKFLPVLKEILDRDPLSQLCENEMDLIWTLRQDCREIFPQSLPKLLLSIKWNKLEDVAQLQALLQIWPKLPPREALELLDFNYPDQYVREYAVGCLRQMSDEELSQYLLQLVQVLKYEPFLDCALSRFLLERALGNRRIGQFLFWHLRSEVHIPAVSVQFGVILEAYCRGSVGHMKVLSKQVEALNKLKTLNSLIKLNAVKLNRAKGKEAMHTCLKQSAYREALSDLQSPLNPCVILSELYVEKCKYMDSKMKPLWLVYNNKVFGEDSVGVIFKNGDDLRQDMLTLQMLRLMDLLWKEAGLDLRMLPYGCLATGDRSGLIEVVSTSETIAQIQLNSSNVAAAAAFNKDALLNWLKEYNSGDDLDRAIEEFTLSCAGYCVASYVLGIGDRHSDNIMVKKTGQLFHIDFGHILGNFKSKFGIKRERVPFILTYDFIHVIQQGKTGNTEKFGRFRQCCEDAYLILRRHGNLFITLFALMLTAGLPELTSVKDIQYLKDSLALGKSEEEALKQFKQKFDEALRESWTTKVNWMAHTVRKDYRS
Chain of p110β (D862Q) (P27986 whole entry partner, species assumed): as the sequence (P27986 whole entry partner, species assumed) above
Chain of p110α WT (P42336 whole entry): as the sequence (P42336 whole entry H855E, species assumed) above, with E855H counted along it
Chain of p110α WT (P27986 whole entry partner): as the sequence (P27986 whole entry partner, species assumed) above
Chain of p110α (Q859D) (P42336 whole entry Q859D, species assumed): as the sequence (P42336 whole entry H855E, species assumed) above, with E855H, Q859D counted along it
Chain of p110α (Q859D) (P27986 whole entry partner, species assumed): as the sequence (P27986 whole entry partner, species assumed) above
Chain of p110β (E858H) (P42338 whole entry E858H, species assumed): as the sequence (P42338 whole entry D862Q, species assumed) above, with E858H, Q862D counted along it
Chain of p110β (E858H) (P27986 whole entry partner, species assumed): as the sequence (P27986 whole entry partner, species assumed) above
Chain of p110β WT (P42338 whole entry): as the sequence (P42338 whole entry D862Q, species assumed) above, with Q862D counted along it
Chain of p110β WT (P27986 whole entry partner): as the sequence (P27986 whole entry partner, species assumed) above

What is called IC50 is the point on the concentration scale where inhibition reaches its midpoint. Consider TGX286, for which the “difference between literature IC50 and IC50 of this study at p110β” value in assay [1] (0.12μM (Knight et al. 2006) v. 7nM) was determined as 17 fold. Moreover, the “selectivity for p110β relative to p110α (wild type)” value in assay [1] is “over 140 fold”. Besides, in assay [2], the “reduction in potency at p110β-D862Q relative to wild type” value is listed as “approximately 2 fold”. Moreover, the “reduction in potency at p110β-E858H relative to wild type” value in assay [3] was “approximately 2 fold”. In assay [4], the “Selectivity ratio α/β (wt)” value worked out at 142.0. Moreover, the “Selectivity ratio α/β Gln↔Asp” value in assay [5] turned out to be 126.2. The “Selectivity ratio α/β His↔Glu” value in assay [6] is recorded as 106.4. The IC50 in assay [7] is 120 nM.
For the molecule `O=c1cc(N2CCOCC2)oc2c(OCc3ccccc3)cccc12` [TGX102], the “selectivity for p110β relative to p110α (wild type)” value in assay [1] is recorded as “approximately 4 fold”. Further, the “effect of p110β D862Q mutation on inhibition (in words)” value in assay [2] (compared with wild type p110β) is recorded as “indistinguishable from the wild type”. Further, in assay [3] (compared with wild type p110β), the “effect of p110β E858H mutation on inhibition (in words)” value is given as “indistinguishable from the wild type”. Moreover, the “Selectivity ratio α/β (wt)” value in assay [4] stood at 4.30. Moreover, in assay [5], the “loss of potency at Q859D-p110α relative to wild type” value came out at 3 fold and the “Selectivity ratio α/β Gln↔Asp” value is recorded as 12.65. Moreover, in assay [6], the “Selectivity ratio α/β His↔Glu” value is 17.3 and the “loss of potency at H857E-p110α relative to wild type” value is reported as 3 fold.
As for `O=c1cc(N2CCOCC2)oc2c(OCc3cccnc3)cccc12` [TGX132], the “increase in potency at p110β-D862Q relative to wild type” value in assay [2] was “approximately 2 fold”. For the same molecule, in assay [3], the “increase in potency at p110β-E858H relative to wild type” value is recorded as “approximately 2 fold”. In assay [4], the “Selectivity ratio α/β (wt)” value is on record as 0.34. Besides, in assay [5], the “loss of potency at Q859D-p110α relative to wild type” value is recorded as 5-6 fold and the “Selectivity ratio α/β Gln↔Asp” value is 4.59. For the same molecule, in assay [6], the “Selectivity ratio α/β His↔Glu” value amounted to 3.56 and the “loss of potency at H857E-p110α relative to wild type” value is recorded as 5-6 fold.

Values taken from article PMC2820364 (The Biochemical journal, 2008).
